# Measured values from patent US20230348376A1 (TEIJIN PHARMA LIMITED, priority 2020, published 2023).
# Target: T1, human VDR (Homo sapiens, UniProt P11473)
# T1 sequence (P11473 1-427): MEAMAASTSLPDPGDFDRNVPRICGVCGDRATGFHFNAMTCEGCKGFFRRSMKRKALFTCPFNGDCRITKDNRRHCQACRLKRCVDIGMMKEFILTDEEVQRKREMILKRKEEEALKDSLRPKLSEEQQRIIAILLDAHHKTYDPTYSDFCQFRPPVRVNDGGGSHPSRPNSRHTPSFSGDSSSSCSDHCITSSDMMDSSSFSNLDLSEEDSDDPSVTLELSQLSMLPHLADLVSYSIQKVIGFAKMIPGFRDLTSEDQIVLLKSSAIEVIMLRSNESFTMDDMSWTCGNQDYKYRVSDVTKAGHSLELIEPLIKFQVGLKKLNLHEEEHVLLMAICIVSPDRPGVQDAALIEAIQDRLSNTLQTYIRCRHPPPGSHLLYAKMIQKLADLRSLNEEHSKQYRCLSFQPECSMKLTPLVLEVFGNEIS
# T1 sequence (P19793 1-462 partner): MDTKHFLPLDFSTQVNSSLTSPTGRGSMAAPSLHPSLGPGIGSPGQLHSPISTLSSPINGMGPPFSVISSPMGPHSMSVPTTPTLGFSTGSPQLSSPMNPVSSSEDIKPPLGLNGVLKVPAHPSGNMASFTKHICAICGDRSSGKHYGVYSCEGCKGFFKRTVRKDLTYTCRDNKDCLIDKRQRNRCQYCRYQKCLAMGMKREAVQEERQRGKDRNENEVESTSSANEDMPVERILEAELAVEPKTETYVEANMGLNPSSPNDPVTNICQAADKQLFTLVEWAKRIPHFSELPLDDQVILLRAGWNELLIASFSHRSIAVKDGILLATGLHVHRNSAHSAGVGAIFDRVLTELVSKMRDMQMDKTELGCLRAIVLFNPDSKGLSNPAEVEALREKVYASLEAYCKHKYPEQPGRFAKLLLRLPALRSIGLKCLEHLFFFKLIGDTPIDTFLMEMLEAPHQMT
# Assay: Evaluation of VDR transcription activity in human osteoblasts (HOS cells), luciferase reporter
# Details: Activity (EC50, VDR transcription activity), HOS cells transfected with human VDR, human RXRα and DR3 luciferase reporter; 21 hours
row,Compound,EC50 [nM]
1,"C=C1[C@H](O)CC(=C/C=C2\CCC[C@]3(C)[C@@H]([C@@H](C)CN4CCC(O)(C(F)F)CC4)CC[C@@H]23)C[C@H]1O [Compound C026, (1R,3R)-5-(2-((1R,3aS,7aR,E)-1-((R)-1-(4-(difluoromethyl)-4-hydroxypiperidin-1-yl)propan-2-yl)-7a-methyloctahydro-4H-inden-4-ylidene)ethylidene)-2-methylenecyclohexane-1,3-diol]",1 to 10
2,"C=C1/C(=C\C=C2/CCC[C@]3(C)[C@@H]([C@@H](C)CN4CCC(C)(O)CC4)CC[C@@H]23)C[C@@H](O)C[C@@H]1O [Compound C029, (1R,3S,Z)-5-(2-((1R,3aS,7aR,E)-1-((R)-1-(4-hydroxy-4-methylpiperidin-1-yl)propan-2-yl)-7a-methyloctahydro-4H-inden-4-ylidene)ethylidene)-4-methylenecyclohexane-1,3-diol]",100 to 1000
3,"C=C1[C@H](O)CC(=C/C=C2\CCC[C@]3(C)[C@@H]([C@H](C)CN4CCC[C@@](C)(O)C4)CC[C@@H]23)C[C@H]1O [Compound C040, (1R,3R)-5-(2-((1R,3aS,7aR,E)-1-((S)-1-((R)-3-hydroxy-3-methylpiperidin-1-yl)propan-2-yl)-7a-methyloctahydro-4H-inden-4-ylidene)ethylidene)-2-methylenecyclohexane-1,3-diol]",10 to 100
4,"C=C1[C@H](O)CC(=C/C=C2\CCC[C@]3(C)[C@@H]([C@H](C)CN4CCC[C@](C)(O)C4)CC[C@@H]23)C[C@H]1O [Compound C041, (1R,3R)-5-(2-((1R,3aS,7aR,E)-1-((S)-1-((S)-3-hydroxy-3-methylpiperidin-1-yl)propan-2-yl)-7a-methyloctahydro-4H-inden-4-ylidene)ethylidene)-2-methylenecyclohexane-1,3-diol]",< 1
5,"C=C1/C(=C\C=C2/CCC[C@]3(C)[C@@H]([C@H](C)CN4CCC[C@H](C(F)F)C4)CC[C@@H]23)C[C@@H](O)C[C@@H]1O [Compound C048, (1R,3S,Z)-5-(2-((1R,3aS,7aR,E)-1-((S)-1-((S)-3-(difluoromethyl)piperidin-1-yl)propan-2-yl)-7a-methyloctahydro-4H-inden-4-ylidene)ethylidene)-4-methylenecyclohexane-1,3-diol]",10 to 100
6,"C=C1[C@H](O)CC(=C/C=C2\CCC[C@]3(C)[C@@H]([C@H](C)CN4CCC[C@H](C(F)F)C4)CC[C@@H]23)C[C@H]1O [Compound C049, (1R,3R)-5-(2-((1R,3aS,7aR,E)-1-((S)-1-((S)-3-(difluoromethyl)piperidin-1-yl)propan-2-yl)-7a-methyloctahydro-4H-inden-4-ylidene)ethylidene)-2-methylenecyclohexane-1,3-diol]",1 to 10
7,"C=C1/C(=C\C=C2/CCC[C@]3(C)[C@@H]([C@H](C)CN4CCC[C@H](C(F)F)C4)CC[C@@H]23)C[C@@H](O)[C@H](C)[C@@H]1O [Compound C050, (1R,2S,3 S,Z)-5-(2-((1R,3aS,7aR,E)-1-((S)-1-((S)-3-(difluoromethyl)piperidin-1-yl)propan-2-yl)-7a-methyloctahydro-4H-inden-4-ylidene)ethylidene)-2-methyl-4-methylenecyclohexane-1,3-diol]",1 to 10
8,"C[C@H](CN1CCC[C@H](CC(F)F)C1)[C@H]1CC[C@H]2/C(=C/C=C3C[C@@H](O)C[C@H](O)C3)CCC[C@]12C [Compound C051, (1R,3R)-5-(2-((1R,3aS,7aR,E)-1-((S)-1-((R)-3-(2,2-difluoroethyl)piperidin-1-yl)propan-2-yl)-7a-methyloctahydro-4H-inden-4-ylidene)ethylidene)cyclohexane-1,3-diol]",100 to 1000
9,"C=C1[C@H](O)CC(=C/C=C2\CCC[C@]3(C)[C@@H]([C@H](C)CN4CCC[C@H](C(C)(F)F)C4)CC[C@@H]23)C[C@H]1O [Compound C053, (1R,3R)-5-(2-((1R,3aS,7aR,E)-1-((S)-1-((S)-3-(1,1-difluoroethyl)piperidin-1-yl)propan-2-yl)-7a-methyloctahydro-4H-inden-4-ylidene)ethylidene)-2-methylenecyclohexane-1,3-diol]",1 to 10
10,"C=C1[C@H](O)CC(=C/C=C2\CCC[C@]3(C)[C@@H]([C@@H](C)CN4CCC(CC(F)F)CC4)CC[C@@H]23)C[C@H]1O [Compound C056, (1R,3R)-5-(2-((1R,3aS,7aR,E)-1-((R)-1-(4-(2,2-difluoroethyl)piperidin-1-yl)propan-2-yl)-7a-methyloctahydro-4H-inden-4-ylidene)ethylidene)-2-methylenecyclohexane-1,3-diol]",10 to 100
11,"C=C1[C@H](O)CC(=C/C=C2\CCC[C@]3(C)[C@@H]([C@@H](C)CN4CCC(C(C)(F)F)CC4)CC[C@@H]23)C[C@H]1O [Compound C057, (1R,3R)-5-(2-((1R,3aS,7aR,E)-1-((R)-1-(4-(1,1-difluoroethyl)piperidin-1-yl)propan-2-yl)-7a-methyloctahydro-4H-inden-4-ylidene)ethylidene)-2-methylenecyclohexane-1,3-diol]",1 to 10
12,C=C1/C(=C\C=C2/CCC[C@]3(C)[C@@H]([C@@H](C)CN4CCC(F)CC4)CC[C@@H]23)C[C@@H](O)C[C@@H]1O [Compound C058],10 to 100
13,"C=C1[C@H](O)CC(=C/C=C2\CCC[C@]3(C)[C@@H]([C@@H](C)CN4CCC(C(F)(F)F)CC4)CC[C@@H]23)C[C@H]1O [Compound C060, (1R,3R)-5-(2-((1R,3aS,7aR,E)-7a-methyl-1-((R)-1-(4-(trifluoromethyl)piperidin-1-yl)propan-2-yl)octahydro-4H-inden-4-ylidene)ethylidene)-2-methylenecyclohexane-1,3-diol]",1 to 10
14,"C=C1/C(=C\C=C2/CCC[C@]3(C)[C@@H]([C@H](C)CN4CCO[C@H](C(F)F)C4)CC[C@@H]23)C[C@@H](O)C[C@@H]1O [Compound D005, (1R,3S,Z)-5-(2-((1R,3aS,7aR,E)-1-((S)-1-((S)-2-(difluoromethyl)morpholino)propan-2-yl)-7a-methyloctahydro-4H-inden-4-ylidene)ethylidene)-4-methylenecyclohexane-1,3-diol]",10 to 100
15,"C=C1/C(=C\C=C2/CCC[C@]3(C)[C@@H]([C@H](C)CN4CCO[C@@H](C(F)F)C4)CC[C@@H]23)C[C@@H](O)C[C@@H]1O [Compound D006, (1R,3S,Z)-5-(2-((1R,3aS,7aR,E)-1-((S)-1-((R)-2-(difluoromethyl)morpholino)propan-2-yl)-7a-methyloctahydro-4H-inden-4-ylidene)ethylidene)-4-methylenecyclohexane-1,3-diol]",10 to 100
16,"C=C1[C@H](O)CC(=C/C=C2\CCC[C@]3(C)[C@@H]([C@H](C)CN4CCO[C@@H](C)C4)CC[C@@H]23)C[C@H]1O [Compound D010, (1R,3R)-5-(2-((1R,3aS,7aR,E)-7a-methyl-1-((S)-1-((S)-2-methylmorpholino)propan-2-yl)-octahydro-4H-inden-4-ylidene)ethylidene)-2-methylene-cyclohexane-1,3-diol]",1 to 10
17,"C=C1[C@H](O)CC(=C/C=C2\CCC[C@]3(C)[C@@H]([C@H](C)CN4CCOC5(CC5)C4)CC[C@@H]23)C[C@H]1O [Compound D011, (1R,3R)-5-(2-((1R,3aS,7aR,E)-1-((S)-1-(4-oxa-7-azaspiro[2.5]octan-7-yl)propan-2-yl)-7a-methyloctahydro-4H-inden-4-ylidene)ethylidene)-2-methylenecyclohexane-1,3-diol]",1 to 10
18,"C=C1[C@H](O)CC(=C/C=C2\CCC[C@]3(C)[C@@H]([C@H](C)CN4CCOC(C)(C)C4)CC[C@@H]23)C[C@H]1O [Compound D014, (1R,3R)-5-(2-((1R,3aS,7aR,E)-1-((S)-1-(2,2-dimethylmorpholino)propan-2-yl)-7a-methyloctahydro-4H-inden-4-ylidene)ethylidene)-2-methylenecyclohexane-1,3-diol]",1 to 10
19,"C=C1[C@H](O)CC(=C/C=C2\CCC[C@]3(C)[C@@H]([C@H](C)CN4CCOC[C@@H]4C)CC[C@@H]23)C[C@H]1O [Compound D015, (1R,3R)-5-(2-((1R,3aS,7aR,E)-7a-methyl-1-((S)-1-((S)-3-methylmorpholino)propan-2-yl)octahydro-4H-inden-4-ylidene)ethylidene)-2-methylenecyclohexane-1,3-diol]",10 to 100
20,"C=C1/C(=C\C=C2/CCC[C@]3(C)[C@@H]([C@H](C)CCN4CCOCC4)CC[C@@H]23)C[C@@H](O)C[C@@H]1O [Compound D022, (1R,3S,Z)-5-(2-((1R,3aS,7aR,E)-7a-methyl-1-((R)-4-morpholinobutan-2-yl)octahydro-4H-inden-4-ylidene)ethylidene)-4-methylenecyclohexane-1,3-diol]",10 to 100
